Data from patent US20240182454A1, “Polycyclic Compound for Inhibiting RNA Helicase DHX33, and Application of Compound” (Shenzhen KeYe Life Technologies, Co., Ltd, priority 2021, published 2024).

Legend:
U251-MG cells = assay: Half-maximal cell-inhibitory concentration on U251-MG cells (CCK-8); type: cell-based; settings: Homo sapiens, U-251, U251-MG cells (DHX33-overexpressing), 48 hours incubation, read-out: IC50, half-maximal inhibitory concentrations of compounds on U251-MG cell
Method: U251-MG cells were purchased from the cell bank of the Chinese Academy of Sciences. Cells were cultured in MEM medium containing 10% fetal bovine serum (FBS), 2 mM L-glutamine, streptomycin and penicillin. The growth conditions were set as follows: a humidified cell incubator (37° C., 5% CO2). Cells were passaged every 3 days and were discarded after 10 passages.
U251-MG cells (a DHX33-overexpressing cancer cell strain) were seeded on a 96-well plate at 1×10^4 cells/100 μl/well. After the cells were completely attached, the compounds were added to the cell culture medium at a concentration of 5 nM, 10 nM, 25 nM, 50 nM, 100 nM, 250 nM, 500 nM, 1000 nM, 2000 nM, 5000 nM, 10 μM or 20 μM, and the resulting mixture was uniformly mixed with a multichannel pipette. After the cells were incubated with the compound for 48 hours, CCK-8 reagent (Yeasen Biotechnology (Shanghai) Co., Ltd.) was added to the medium in the 96-well plate in accordance with the standard procedure. After being incubated for 2 hours, the plate was read with a microplate reader (OD=450 nm). The experiment was repeated three times, the inhibiton curve of the compound at different concentrations was plotted, and the half-maximal inhibitory concentration (IC50) of the compound was calculated.

DHX33 protein = molecular target: T1, DHX33 protein (Mus musculus, UniProt Q80VY9); assay: Inhibition of the helicase activity of DHX33 protein in vitro; type: biochemical; settings: recombinant DHX33 protein, compound 1-1000 nM, 37° C. 60 minutes; read-out: IC50, inhibitory effects of the compounds on the helicase activity of DHX33 protein
T1 construct: 0.25 μg of purified full-length DHX33 protein; made in house; host or cells: E. coli BL-21pLysS (DE3)
T1 sequence (Q80VY9 1-698): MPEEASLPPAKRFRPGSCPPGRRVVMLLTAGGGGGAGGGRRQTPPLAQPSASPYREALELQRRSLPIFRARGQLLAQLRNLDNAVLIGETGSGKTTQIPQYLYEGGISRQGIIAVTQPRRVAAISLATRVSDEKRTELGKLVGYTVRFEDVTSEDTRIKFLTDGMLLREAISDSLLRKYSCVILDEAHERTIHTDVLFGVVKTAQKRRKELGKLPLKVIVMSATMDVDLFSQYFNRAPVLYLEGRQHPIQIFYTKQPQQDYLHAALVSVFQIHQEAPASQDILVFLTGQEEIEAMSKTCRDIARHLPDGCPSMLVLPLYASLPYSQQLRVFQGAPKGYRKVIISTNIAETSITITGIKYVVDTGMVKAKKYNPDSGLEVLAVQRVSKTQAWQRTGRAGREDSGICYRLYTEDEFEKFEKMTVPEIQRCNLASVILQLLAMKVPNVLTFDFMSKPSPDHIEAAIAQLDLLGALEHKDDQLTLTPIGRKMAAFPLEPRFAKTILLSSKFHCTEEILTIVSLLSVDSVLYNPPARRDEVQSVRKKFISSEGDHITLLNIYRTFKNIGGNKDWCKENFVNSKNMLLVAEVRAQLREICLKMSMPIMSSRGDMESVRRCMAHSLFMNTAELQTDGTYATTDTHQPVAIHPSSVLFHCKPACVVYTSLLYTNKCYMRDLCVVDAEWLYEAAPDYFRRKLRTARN
Method: Biochemistry. 2019;58 (4):250-8. RNA helicase gene (mouse DHX33 gene) was cloned into a pET32M-3C vector (between BamH I/Not I restriction sites). Afterward, the plasmid was transformed into BL-21pLysS (DE3) E. coli. 0.5 mM isopropyl 1-thio-P-D-galactopyranoside (IPTG) was added, and the expression of the recombinant protein was induced at 16° C. for 16 hours. Cells were allowed to precipitate and were resuspended in a cell lysis buffer [50 mM Tris-HCl (pH7.2), 150 mM NaCl, 1% Triton X-100, and 50 mM imidazole supplemented with a protease inhibitor]. Thereafter, cells were subjected to ultrasonic treatment and centrifuged at a rotation speed of 13000 rpm for 25 minutes. The supernatant was incubated with the nickel-nitrilotriacetic acid beads equilibrated in Tris buffer, followed by sufficient washing. Thereafter, the purified protein was eluted with a solution of 300 mM imidazole in Tris buffer, and was then subjected to dialysis against an imidazole-free Tris buffer at 4° C. overnight.
The components involved in the reaction for testing the helicase activity were added to a 96-well opaque white plate. The method was outlined as follows. The 96-well plate was coated with neutravidin at a final concentration of 10 μg/mL (100 μL/well) overnight at 4° C. Afterwards, the neutravidin-coated plate was blocked with 100 μL of 0.1% (w/v) BSA (dissolved in normal PBS) at 22° C. for 2 hours. After washing, a DNA duplex (2.5 ng) that was resulted from the annealing of two single-stranded DNA oligonucleotides (the sequence of one single strand was biotin-labeled 5′-[…]-3; and the sequence of the other single strand was DIG-labeled 5′-[…]-3′) [the annealing reaction was carried out in PBS (pH 7.0) containing 1M NaCl] was added, and the resulting mixture was incubated at 22° C. for 4 hours. After the addition of 90 μL of the reaction mixture, the helicase reaction was initiated [0.25 μg of purified full-length DHX33 protein, dissolved in 25 mM 4-MOPS (pH 7.0), 5 mM ATP, 2 mM DTT, 3 mM MnCl2 and 100 μg/mL BSA]. The reaction was conducted at 37° C. for 60 minutes. After being washed, each well was incubated with a blocking solution [10% (w/v) BSA in 0.1 M maleic acid and 0.15 M NaCl (pH 7.5)] for 30 minutes, and was then incubated with 20 μL of antibody solution (anti-DIG-AP, Roche, in blocking buffer) for 30 minutes. After being washed with 100 μL of detection buffer [0.1 M Tris-HCl and 0.1 M NaCl (pH 9.5)], each well was added with 1 μL of chemiluminescent substrate (CSPD-0.25 mM), and the plate was incubated at 17° C. for 5 minutes. […] The remaining DIG-AP marker control in each well was counted for 10 minutes by a luminescence multi-well plate reader (Enspire, PerkinElmer). Higher reading indicated weaker helicase activity. […]

| SMILES | IC50 (U251-MG cells) | IC50 (DHX33 protein) |
| --- | --- | --- |
| COc1cc2cc(NC(=O)c3cc(C)n(-c4sc(C)cc4C#N)c3C)[nH]c2cn1 [AB29573] | 100 to 1000 nM | – |
| COc1ccc2c(c1)nc(NC(=O)c1cc(C)n(-c3sc(C)cc3C#N)c1C)n2COC(=O)C(C)(C)C [AB29565] | 1000 to 5000 nM | – |
| COc1cc2[nH]c(NC(=O)c3cc(C)n(-c4sc(C)cc4C#N)c3C)nc2cn1 [AB29558] | < 100 nM | < 20 nM |
| Cc1cc(C#N)c(-n2c(C)cc(C(=O)Nc3nc4ccc(Cl)cc4[nH]3)c2C)s1 [AB29557] | 100 to 1000 nM | – |
| COCn1c(NC(=O)c2cc(C)n(-c3sc(C)cc3C#N)c2C)nc2cc(OC)ccc21 [AB29563] | 100 to 1000 nM | – |
| COc1ccc2nc(NC(=O)c3cc(C)n(-c4sc(C)cc4C#N)c3C)n(C)c2c1 [AB29561] | 100 to 1000 nM | – |
| COCn1c(NC(=O)c2cc(C)n(-c3sc(C)cc3C#N)c2C)nc2ccc(OC)cc21 [AB29562] | 100 to 1000 nM | – |
| COc1ccc2nc(C(=O)Nc3cc(C)n(-c4sc(C)cc4C#N)c3C)[nH]c2c1 [AB29540] | 100 to 1000 nM | – |
| Cc1cc(C#N)c(-n2c(C)cc(C(=O)Nc3nc4ccncc4[nH]3)c2C)s1 [AB29555] | 1000 to 5000 nM | – |
| Cc1oc(-n2c(C)cc(/C=C(\C#N)c3nc4ccccc4[nH]3)c2C)c(C#N)c1C [Compound as control, reference compound] | – | ≥ 400 nM |
| COc1ccc2nc(NC(=O)c3cc(C)n(-c4oc(C)nc4C#N)c3C)[nH]c2c1 [AB29522] | 100 to 1000 nM | – |
| COc1cccc2nc(NC(=O)c3cc(C)n(-c4sc(C)cc4C#N)c3C)[nH]c12 [AB29559] | 1000 to 5000 nM | ≥ 400 nM |
| Cc1cc(C#N)c(-n2c(C)cc(C(=O)Nc3nc4ccc(F)cc4[nH]3)c2C)s1 [AB29556] | 100 to 1000 nM | 20 to 100 nM |
| Cc1cc(C#N)c(-n2c(C)cc(C(=O)Nc3nc4ccc(OC(F)(F)F)cc4[nH]3)c2C)s1 [AB29572] | 1000 to 5000 nM | – |
| COc1cnc2nc(NC(=O)c3cc(C)n(-c4sc(C)cc4C#N)c3C)[nH]c2c1 [AB29566] | < 100 nM | – |
| Cc1cc(C#N)c(-n2c(C)cc(C(=O)Nc3nc4cccnc4[nH]3)c2C)s1 [AB29554] | 1000 to 5000 nM | – |
| COc1ccc2nc(N(C)C(=O)c3cc(C)n(-c4sc(C)cc4C#N)c3C)[nH]c2c1 [AB29560] | 100 to 1000 nM | – |
| COc1ccc2nc(NC(=O)c3cc(C)n(-c4sc(C)cc4C#N)c3C)n(COC(=O)C(C)(C)C)c2c1 [AB29564] | 1000 to 5000 nM | – |
| Cc1cc(C#N)c(-n2c(C)cc(C(=O)Nc3nc4ccccc4[nH]3)c2C)s1 [AB29553] | 100 to 1000 nM | – |
| COc1ccc2nc(NC(=O)c3cc(C)n(Cc4cccs4)c3C)[nH]c2c1 [AB29552] | 1000 to 5000 nM | – |
